In PubChem BioAssay AID330 (DTP/NCI, 2004):
Where “and” joins values, the source holds several entries; their conditions need not be identical. Identical values can stand only once. Toxic doses and inconclusive results are not listed.

System: P388 leukemia ip, CD2F1 mice, survival T/C
Assay: NCI In Vivo Anticancer Drug Screen. Data for tumor model P388 Leukemia (intraperitoneal) in CD2F1 (CDF1) mice
Details: endpoint: median survival time, higher = longer survival
Outline: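 Mice carrying the transplanted tumor received test compound or vehicle. Survival was recorded in each group, and the value is the treated-group measurement divided by that of the vehicle-treated control group.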

[1] = dose: 25.0 mg/kg/injection, schedule: Q01DX009 (ip), vehicle: saline with Tween-80
[2] = dose: 50.0 mg/kg/injection, schedule: Q01DX009 (ip), vehicle: saline with Tween-80
[3] = dose: 50.0 mg/kg/injection, schedule: Q01DX009 (ip), vehicle: suspension in saline
[4] = dose: 100.0 mg/kg/injection, schedule: Q01DX009 (ip), vehicle: saline with Tween-80
[5] = dose: 100.0 mg/kg/injection, schedule: Q01DX009 (ip), vehicle: suspension in saline
[6] = dose: 200.0 mg/kg/injection, schedule: Q01DX009 (ip), vehicle: suspension in saline
[7] = dose: 50.0 mg/kg/injection, schedule: Q01DX005 (ip), vehicle: saline with Tween-80
[8] = dose: 100.0 mg/kg/injection, schedule: Q01DX005 (ip), vehicle: saline with Tween-80
[9] = dose: 25.0 mg/kg/injection, schedule: Q01DX005 (ip), vehicle: saline with Tween-80
[10] = dose: 50.0 mg/kg/injection, schedule: Q01DX005 (ip), vehicle: Klucel (hydroxypropylcellulose) (HPC)
[11] = dose: 100.0 mg/kg/injection, schedule: Q01DX005 (ip), vehicle: Klucel (hydroxypropylcellulose) (HPC)
[12] = dose: 200.0 mg/kg/injection, schedule: Q01DX005 (ip), vehicle: Klucel (hydroxypropylcellulose) (HPC)
[13] = dose: 100.0 mg/kg/injection, schedule: Q01DX001 (ip), vehicle: Klucel (hydroxypropylcellulose) (HPC)
[14] = dose: 200.0 mg/kg/injection, schedule: Q01DX001 (ip), vehicle: Klucel (hydroxypropylcellulose) (HPC)
[15] = dose: 400.0 mg/kg/injection, schedule: Q01DX001 (ip), vehicle: Klucel (hydroxypropylcellulose) (HPC)

COC1/C=C/OC2(C)Oc3c(C)c(O)c4c(O)c(c(/C=N/N5C(C)CN(Cc6ccc([N+](=O)[O-])cc6)CC5C)c(O)c4c3C2=O)NC(=O)/C(C)=C\C=C\C(C)C(O)C(C)C(O)C(C)C(OC(C)=O)C1C (stereo not given)
T/C [1]: 100 % of control | T/C (dose: 25.0 mg/kg/injection, schedule: Q01DX009 (ip), vehicle: suspension in saline): 103 % of control | T/C [2]: 104 % of control and 119 % of control | T/C [3]: 103 % of control | T/C [4]: 119 % of control | T/C [5]: 108 % of control | T/C [6]: 119 % of control

CSC(=S)n1nc(-c2ccccc2)c(N=Nc2cccc(Cl)c2)c1-c1ccccc1
T/C (dose: 100.0 mg/kg/injection, schedule: Q04DX002 (ip), vehicle: saline with Tween-80): 107 % of control | T/C (dose: 200.0 mg/kg/injection, schedule: Q04DX002 (ip), vehicle: saline with Tween-80): 104 % of control | T/C (dose: 400.0 mg/kg/injection, schedule: Q04DX002 (ip), vehicle: saline with Tween-80): 119 % of control

N#C/C(=C1/OC(=N)C(c2ccc(Cl)cc2)C1=O)c1ccc(Cl)cc1 (stereo not given)
T/C [7]: 110 % of control | T/C [8]: 99 % of control

CCOC(=O)C(CCc1ccc(N(CCCl)CCCl)cc1)(NC(C)=O)C(=O)OCC
T/C (dose: 12.5 mg/kg/injection, schedule: Q01DX009 (ip), vehicle: Klucel (hydroxypropylcellulose) (HPC)): 109 % of control | T/C (dose: 25.0 mg/kg/injection, schedule: Q01DX009 (ip), vehicle: Klucel (hydroxypropylcellulose) (HPC)): 111 % of control | T/C (dose: 50.0 mg/kg/injection, schedule: Q01DX009 (ip), vehicle: Klucel (hydroxypropylcellulose) (HPC)): 116 % of control

COc1ccccc1/C=C(/C)[N+](=O)[O-]
T/C (dose: 10.0 mg/kg/injection, schedule: Q01DX010 (ip), vehicle: saline): 109 % of control | T/C (dose: 14.0 mg/kg/injection, schedule: Q01DX010 (ip), vehicle: saline): 90 % of control | T/C (dose: 22.0 mg/kg/injection, schedule: Q01DX010 (ip), vehicle: saline): 100 % of control | T/C (dose: 33.0 mg/kg/injection, schedule: Q01DX010 (ip), vehicle: saline): 109 % of control | T/C (dose: 50.0 mg/kg/injection, schedule: Q01DX010 (ip), vehicle: saline): 100 % of control | T/C (dose: 75.0 mg/kg/injection, schedule: Q01DX010 (ip), vehicle: saline): 118 % of control

O=Nc1c(=O)[nH]c(O)c2ccccc12
T/C [9]: 100 % of control | T/C [7]: 107 % of control | T/C [8]: 93 % of control

Cc1ccc2c(c1)N=C(OCCCN(C)C)/C(=C/c1ccccc1)O2
T/C (dose: 50.0 mg/kg/injection, schedule: Q04DX002 (ip), vehicle: Klucel (hydroxypropylcellulose) (HPC)): 105 % of control | T/C (dose: 100.0 mg/kg/injection, schedule: Q04DX002 (ip), vehicle: Klucel (hydroxypropylcellulose) (HPC)): 99 % of control | T/C (dose: 200.0 mg/kg/injection, schedule: Q04DX002 (ip), vehicle: Klucel (hydroxypropylcellulose) (HPC)): 101 % of control

COc1ccc2nc3cc(Cl)ccc3c(NN3CCN(CCO)CC3)c2c1
T/C (dose: 0.19 mg/kg/injection, schedule: Q01DX009 (ip), vehicle: DMSO): 86 % of control | T/C (dose: 0.38 mg/kg/injection, schedule: Q01DX009 (ip), vehicle: DMSO): 98 % of control and 89 % of control | T/C (dose: 0.75 mg/kg/injection, schedule: Q01DX009 (ip), vehicle: DMSO): 98 % of control | T/C (dose: 1.5 mg/kg/injection, schedule: Q01DX009 (ip), vehicle: DMSO): 107 % of control and 95 % of control | T/C (dose: 23.0 micrograms/kg/injection, schedule: Q01DX009 (ip), vehicle: DMSO): 87 % of control | T/C (dose: 47.0 micrograms/kg/injection, schedule: Q01DX009 (ip), vehicle: DMSO): 91 % of control | T/C (dose: 94.0 micrograms/kg/injection, schedule: Q01DX009 (ip), vehicle: DMSO): 89 % of control

CCOc1ccc(N2C(N)=NC(N)=NC2(C)C)cc1
T/C (dose: 12.5 mg/kg/injection, schedule: Q01DX005 (ip), vehicle: saline with Tween-80): 99 % of control | T/C [9]: 101 % of control | T/C [7]: 101 % of control and 108 % of control

Cc1ncc([N+](=O)[O-])n1CCn1nnc2c1CCCC2
T/C (dose: 25.0 mg/kg/injection, schedule: Q04DX003 (ip), vehicle: saline): 100 % of control and 109 % of control | T/C (dose: 50.0 mg/kg/injection, schedule: Q04DX003 (ip), vehicle: saline): 100 % of control and 109 % of control | T/C (dose: 100.0 mg/kg/injection, schedule: Q04DX003 (ip), vehicle: saline): 115 % of control and 96 % of control | T/C (dose: 200.0 mg/kg/injection, schedule: Q04DX003 (ip), vehicle: saline): 99 % of control and 115 % of control

CC1=C(c2ccccc2)OS(=O)(=O)NC1=O
T/C (dose: 25.0 mg/kg/injection, schedule: Q01DX009 (ip), vehicle: water): 114 % of control | T/C (dose: 50.0 mg/kg/injection, schedule: Q01DX009 (ip), vehicle: water): 104 % of control | T/C (dose: 100.0 mg/kg/injection, schedule: Q01DX009 (ip), vehicle: water): 106 % of control | T/C (dose: 200.0 mg/kg/injection, schedule: Q01DX009 (ip), vehicle: water): 103 % of control | T/C (dose: 400.0 mg/kg/injection, schedule: Q01DX009 (ip), vehicle: water): 113 % of control

COc1ccc(C2(c3ccc(OC)cc3)c3ccccc3C(=O)c3ccc(OC)cc32)cc1
T/C [7]: 98 % of control | T/C [8]: 100 % of control | T/C (dose: 200.0 mg/kg/injection, schedule: Q01DX005 (ip), vehicle: saline with Tween-80): 96 % of control

O=C(/C=C/c1ccccc1)[c-]1[c-][c-][c-][c-]1.[Fe].[c-]1[c-][c-][cH-][c-]1
T/C [10]: 96 % of control | T/C [11]: 109 % of control | T/C [12]: 100 % of control

C=CCNC(=O)/C(C)=C(/C)c1ccccc1
T/C [13]: 100 % of control | T/C [14]: 104 % of control | T/C [15]: 99 % of control

Cc1c(Cl)cc([N+](=O)[O-])cc1S(=O)(=O)Oc1ccccc1
T/C [13]: 103 % of control | T/C [14]: 108 % of control | T/C [15]: 100 % of control

CCc1cccc(CC)c1NC(=O)C(Sc1nc(-c2cccs2)cc(C(F)(F)F)c1C#N)c1ccccc1 (stereo not given)
T/C [10]: 94 % of control | T/C [11]: 94 % of control | T/C [12]: 89 % of control

C/C=C/c1cc2c(c(=O)o1)C(=O)[C@@H](O)[C@H](C)O2
T/C (dose: 12.5 mg/kg/injection, schedule: Q01DX009 (ip), vehicle: saline with Tween-80): 101 % of control | T/C [1]: 101 % of control | T/C (dose: 44.0 mg/kg/injection, schedule: Q01DX009 (ip), vehicle: saline with Tween-80): 112 % of control | T/C [2]: 110 % of control | T/C (dose: 66.0 mg/kg/injection, schedule: Q01DX009 (ip), vehicle: saline with Tween-80): 121 % of control

CCOc1cc2c(cc1C(C)c1ccc(OCc3ccccc3)c(OC)c1)OCO2 (stereo not given)
T/C [10]: 97 % of control | T/C [11]: 97 % of control | T/C [12]: 92 % of control

CCC(C)C[c-]1[c-][c-][c-][c-]1.CCC(C)C[c-]1[c-][c-][c-][c-]1.[Cl][Zr][Cl] (stereo not given)
T/C [2]: 90 % of control | T/C [4]: 88 % of control

CC(=O)OC(C(=O)CCl)C(OC(C)=O)C(OC(C)=O)C(=O)CCl (stereo not given)
T/C (dose: 12.5 mg/kg/injection, schedule: Q01DX009 (ip), vehicle: distilled water + Tween-80 + alcohol): 93 % of control | T/C (dose: 25.0 mg/kg/injection, schedule: Q01DX009 (ip), vehicle: distilled water + Tween-80 + alcohol): 101 % of control | T/C (dose: 50.0 mg/kg/injection, schedule: Q01DX009 (ip), vehicle: distilled water + Tween-80 + alcohol): 100 % of control

CCOc1cc(=O)cc2n(-c3cc(OCC)c(O)c(OCC)c3)c3ccccc3nc1-2
T/C [3]: 100 % of control | T/C [5]: 101 % of control | T/C [6]: 97 % of control

CC1S(=O)(=O)OCCOS1(=O)=O
T/C (dose: 12.5 mg/kg/injection, schedule: Q01DX005 (ip), vehicle: Klucel (hydroxypropylcellulose) (HPC)): 162 % of control | T/C (dose: 25.0 mg/kg/injection, schedule: Q01DX005 (ip), vehicle: Klucel (hydroxypropylcellulose) (HPC)): 175 % of control and 275 % of control | T/C [10]: 165 % of control and 288 % of control

COC(=O)c1cc2c(oc1=O)-c1ccccc1N(C=O)C2
T/C (dose: 60.0 mg/kg/injection, schedule: Q01DX005 (ip), vehicle: saline with Tween-80): 86 % of control | T/C (dose: 120.0 mg/kg/injection, schedule: Q01DX005 (ip), vehicle: saline with Tween-80): 88 % of control | T/C (dose: 240.0 mg/kg/injection, schedule: Q01DX005 (ip), vehicle: saline with Tween-80): 98 % of control

CCCN(C)C(=O)N(CCCl)N=O
T/C (dose: 16.0 mg/kg/injection, schedule: Q01DX001 (ip), vehicle: water): 166 % of control | T/C (dose: 32.0 mg/kg/injection, schedule: Q01DX001 (ip), vehicle: water): 240 % of control
